One test concerns LS174T. Nature of the test: GI50 growth inhibition, CyQUANT, LS174T. The class given is cell-based. The following applies: Homo sapiens, LS174T cells, 120 to 168 hours. The protocol: (§1) SKCO1, LS180, and LS174T cell lines were purchased from ATCC. CW2 cell line was purchased from Riken. GP2D cell line was purchased from Sigma/ECACC. All cell lines were cultured in manufacturer's recommended media at 37° C., 5% CO2. Briefly, cells were suspended in 200 μL of media and seeded at 300 to 1,800 cells per well in tissue culture treated 96-well plates with black walls and clear bottom. Plates were incubated overnight and initial (T0) read was performed the following day using CyQUANT Direct Cell Proliferation Assay Kit (Thermo Fisher Scientific) according to manufacturer's protocol. All compounds were solubilized in DMSO and prepared at 3-fold serial dilution, using 9 points starting at 30 μM as highest concentration, administered to cells and incubated for 120 to 168 hours, at which point CyQUANT assay measurement was performed using Acumen Cellista instrument (Ex/Em 480/520 nm). Media-only wells were used as blank, and 0.3% DMSO was used as DMSO-treated cell control. Growth inhibition (percent response) was calculated using the following formula in Excel: “=if ([Compound treated Day N]>[Untreated Day 0, AVG], ([Compound treated Day N]−[Untreated Day 0, AVG])/([Untreated Day N]−[Untreated Day 0, AVG])*100, ([Compound Treated Day N]−[Untreated Day 0, AVG])/([Untreated Day 0, AVG])*100)”. GI50 is the response corresponding to the 50% of untreated control.
(§2) GI50 data are reported in Tables 4a, 4b, 4c, 4d, and 4e for compounds in Table 1. In Tables 4a, 4b, 4c, 4d, and 4e below, According to the code, A represents a GI50 value of ≤0.1 μM, B represents a GI50 value>0.1 μM and ≤1 μM, C represents an GI50 value>1 μM.

The test system of another test is SKCO1. As to the kind of experiment: GI50 growth inhibition, CyQUANT, SKCO1. The class given is cell-based. The following applies: Homo sapiens, SK-CO-1, SKCO1 cells, 120 to 168 hours. As for the experimental part:
as §1, §2

The target in another test is CRBN/DDB1 (Homo sapiens, UniProt Q96SW2). As to the kind of experiment: HTRF binding assay (thalidomide probe displacement from CRBN/DDB1). The following applies: CRBN/DDB1 2.5 nM, Cy5-Thalidomide 100 nM, 30 min; geometric mean; read-out: HTRF_Thali_Disp_DR—geo_IC50. In a few lines: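 Displacement of Cy5-thalidomide probe (100 nM) from CRBN/DDB1 (2.5 nM) with anti-His Tb cryptate in 20 mM HEPES, 20 mM NaCl, 0.2 mM TCEP, 0.2 mM EDTA, 0.005% Tween20; 10-point 1:3 series, 30 min ambient. HTRF 665/620 ratio; IC50 by 4-parameter fit, Ki via Cheng-Prusoff.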
Chain of CRBN/DDB1 (Q96SW2 whole entry): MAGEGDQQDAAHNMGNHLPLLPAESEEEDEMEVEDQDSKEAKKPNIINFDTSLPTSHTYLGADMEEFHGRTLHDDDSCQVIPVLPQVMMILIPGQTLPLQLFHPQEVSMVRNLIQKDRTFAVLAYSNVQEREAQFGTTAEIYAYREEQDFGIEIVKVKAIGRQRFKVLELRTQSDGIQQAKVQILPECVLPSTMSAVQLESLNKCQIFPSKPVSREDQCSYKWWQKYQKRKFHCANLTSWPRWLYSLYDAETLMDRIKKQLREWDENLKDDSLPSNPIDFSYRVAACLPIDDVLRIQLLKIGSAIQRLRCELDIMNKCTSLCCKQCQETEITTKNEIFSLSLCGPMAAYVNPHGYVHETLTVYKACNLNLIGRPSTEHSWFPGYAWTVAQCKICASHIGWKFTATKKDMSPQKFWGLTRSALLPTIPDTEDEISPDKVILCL
Chain of CRBN/DDB1 (Q16531 whole entry partner): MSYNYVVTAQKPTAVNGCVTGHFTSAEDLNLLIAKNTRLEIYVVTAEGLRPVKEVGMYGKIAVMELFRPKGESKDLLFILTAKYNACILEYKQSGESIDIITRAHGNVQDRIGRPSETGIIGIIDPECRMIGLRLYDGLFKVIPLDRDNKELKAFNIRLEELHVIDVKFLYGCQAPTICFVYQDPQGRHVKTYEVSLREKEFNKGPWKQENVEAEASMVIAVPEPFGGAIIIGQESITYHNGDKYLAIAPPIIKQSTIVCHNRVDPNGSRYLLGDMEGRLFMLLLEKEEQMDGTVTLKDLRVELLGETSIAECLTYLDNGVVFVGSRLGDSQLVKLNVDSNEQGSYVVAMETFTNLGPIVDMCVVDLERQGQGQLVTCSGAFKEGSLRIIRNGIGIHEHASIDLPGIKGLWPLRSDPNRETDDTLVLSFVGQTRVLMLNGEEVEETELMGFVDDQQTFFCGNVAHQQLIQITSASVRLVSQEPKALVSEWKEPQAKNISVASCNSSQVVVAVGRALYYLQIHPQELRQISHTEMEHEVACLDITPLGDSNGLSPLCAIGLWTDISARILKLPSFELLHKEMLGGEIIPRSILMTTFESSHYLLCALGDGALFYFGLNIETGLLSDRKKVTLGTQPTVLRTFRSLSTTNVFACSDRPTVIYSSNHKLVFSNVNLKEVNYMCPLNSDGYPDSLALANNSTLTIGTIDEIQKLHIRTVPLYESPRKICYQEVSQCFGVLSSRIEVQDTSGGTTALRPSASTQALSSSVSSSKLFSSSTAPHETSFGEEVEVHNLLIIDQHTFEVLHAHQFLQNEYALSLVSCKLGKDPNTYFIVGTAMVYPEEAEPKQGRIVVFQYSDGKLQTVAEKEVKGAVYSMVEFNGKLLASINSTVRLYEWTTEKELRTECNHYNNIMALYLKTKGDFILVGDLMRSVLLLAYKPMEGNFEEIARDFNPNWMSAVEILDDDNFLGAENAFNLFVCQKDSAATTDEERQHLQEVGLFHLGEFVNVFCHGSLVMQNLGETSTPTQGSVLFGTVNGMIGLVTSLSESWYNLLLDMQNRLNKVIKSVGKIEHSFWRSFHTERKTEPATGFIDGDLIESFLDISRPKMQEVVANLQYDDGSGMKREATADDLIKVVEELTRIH

The term GI50 denotes the concentration giving 50% growth inhibition. A low value points to more potent growth inhibition. Regarding `O=C1CCC(N2Cc3cc(NC(=O)c4ccc(Cl)cc4)ccc3C2=O)C(=O)N1` (stereo not drawn) [Compound 147], the values for the concentration for 50% growth inhibition (GI50) in the test on LS174T and in the test on SKCO1 were above 1000 nM and 100 to 1000 nM, respectively. Besides, the IC50 at CRBN/DDB1 was in the range of 100 to 1000 nM.

For `O=C1CCC(N2Cc3cc(NC(=O)c4ncn(-c5ccccc5)c4C(F)(F)F)ccc3C2=O)C(=O)N1` (stereo not drawn) [Compound 154, N-(2-(2,6-dioxopiperidin-3-yl)-1-oxoisoindolin-5-yl)-1-phenyl-5-(trifluoromethyl)-1H-imidazole-4-carboxamide], the concentration for 50% growth inhibition (GI50) was 100 to 1000 nM with LS174T and below 100 nM with SKCO1. In addition, the IC50 at CRBN/DDB1 is 100 to 1000 nM.

Values taken from patent publication US20250115582A1, “MOLECULAR GLUE DEGRADERS AND METHODS OF USING THE SAME” (Monte Rosa Therapeutics, Inc., priority 2022, published 2025).
